Assay results reported in patent publication EP4585599A1, “NITROGEN-CONTAINING FUSED RING COMPOUND, INTERMEDIATE THEREOF, PREPARATION METHOD THEREFOR AND USE THEREOF” (Hangzhou Synrx Therapeutics Biomedical Technology Co., Ltd., priority 2022, dated 2024).
Structures can show the parent of a compound that is named as a salt. Where two headings read alike, the source gives them in different places.

Assays:
[1] = target: T1, helicase domain of the Pol θ protein (Homo sapiens, UniProt O75417); assay: Biochemical Activity Assay (ADP Glo Assay) of Pol θ inhibitor, ATPase activity
T1 construct: The helicase domain of the Pol θ protein was purified from insect protein expression system; made in house; host or cells: insect protein expression system
T1 sequence (O75417 102-554 limits assumed): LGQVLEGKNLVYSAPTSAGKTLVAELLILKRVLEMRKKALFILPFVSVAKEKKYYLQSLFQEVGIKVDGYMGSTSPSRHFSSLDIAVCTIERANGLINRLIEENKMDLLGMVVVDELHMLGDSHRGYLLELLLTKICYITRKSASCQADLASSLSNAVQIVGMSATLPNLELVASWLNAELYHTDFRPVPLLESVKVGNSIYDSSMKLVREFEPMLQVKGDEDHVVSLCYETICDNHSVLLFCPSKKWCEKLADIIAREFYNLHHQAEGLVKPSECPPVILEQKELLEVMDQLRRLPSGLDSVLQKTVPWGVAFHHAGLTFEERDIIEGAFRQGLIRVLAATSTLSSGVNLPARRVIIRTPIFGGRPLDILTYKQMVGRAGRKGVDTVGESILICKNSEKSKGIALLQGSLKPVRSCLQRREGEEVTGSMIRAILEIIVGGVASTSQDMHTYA

cells = settings: Homo sapiens, DLD-1, 240 h
[2] = ADP-Glo assay, ATPase activity of Pol θ helicase domain, ssDNA substrate, read-out: Biochemical assay IC50
[3] = read-out: Cell viability assay IC50 (nM), CTG assay, CellTiter Glo, read on Day 10, cell line not given
[4] = ADP-Glo, ssDNA substrate, 60 min at room temperature, read-out: Biochemical assay IC50
[5] = read-out: Cell viability assay IC50 (nM), CTG on Day 10, cell line not given (method: DLD1 and DLD1^-/- cells)
[6] = read-out: Cell viability assay IC50 (nM)

Compound | IC50 [1, 2] [nM] | IC50 (cells; [3]) [nM] | IC50 [1, 4] [nM] | IC50 (cells; [5]) [nM] | IC50 ([1]; Biochemical assay IC50 (nM)) [nM] | IC50 (cells; [6]) [nM] | IC50 ([1]; read-out: Biochemical assay IC50) [nM]
COc1cnc(Cl)cc1-c1cc(C)ncc1C(=O)Nc1nc2cnc(-c3c(C)nn(C)c3C(N)=O)cc2s1 [Example 152] | 3.02 | 17.2 |  |  |  |  | 
COc1cnc(Cl)cc1-c1cc(C)ncc1C(=O)Nc1nc2ccc(-c3ccncc3C)nc2s1 [Example 83] | 3.21 | 29.3 | < 50 | < 100 |  |  | 
COc1cnc(Cl)cc1-c1cc(C)ncc1C(=O)Nc1nc2cnc(-c3c(C)cnn3CCO)cc2s1 [Example 220] | 2.51 | 22.2 |  |  |  |  | 
COc1cnc(Cl)cc1-c1cc(C)ncc1C(=O)Nc1nc2cnc(C3=CCC(O)CC3)nc2s1 (stereo not drawn) [Example 91, 2'-chloro-N-(5-(4-hydroxycyclohex-1-en-1-yl)thiazolo[5,4-d]pyrimidin-2-yl)-5'-methoxy-6-methyl-[4,4'-bipyridine]-3-carboxamide] | 1.88 | 11.7 | < 50 | < 100 |  |  | 
COc1cnc(Cl)cc1-c1cc(C)ncc1C(=O)Nc1nc2cc3c(cc2s1)C(=O)N(C)CCC3 [Example 225, 2'-chloro-5'-methoxy-6-methyl-N-(6-methyl-5-oxo-6,7,8,9-tetrahydro-5H-thiazolo[4',5': 4,5]benzo[1,2-c]aza-2-yl)-[4,4'-bipyridine]-3-carboxamide] |  |  |  |  | 21.1 | 56.2 | 
COc1cnc(Cl)c(F)c1-c1cc(C)ncc1C(=O)Nc1nc2cnc(-c3c(C)noc3C)cc2s1 [Example 211] | 2.51 | 3.28 |  |  |  |  | 
COc1cnc(Cl)cc1-c1cc(C)ncc1C(=O)Nc1nc2cnc(-c3c(C)cnn3C(C)C)cc2s1 [Example 212] | 3.48 | 2.23 |  |  |  |  | 
COc1cnc(Cl)c(F)c1-c1cc(C)ncc1C(=O)Nc1nc2ncc(C3=CCC(O)CC3)cc2s1 (stereo not drawn) [Example 8] | 1.09 | 24.2 | < 50 | < 100 |  |  | 
COc1cnc(Cl)cc1-c1cnccc1C(=O)Nc1nc2ccc([C@H]3CC[C@H](O)CC3)nc2s1 [Example 34] | 48.9 | 2000 | < 50 | > 1000 |  |  | 
COc1cnc(Cl)c(F)c1-c1cc(C)ncc1C(=O)Nc1nc2ccc(-c3c(C)nnn3C)cc2s1 [Example 224] | 3.98 | 3.16 |  |  |  |  | 
COc1cnc(Cl)cc1-c1cc(C)ncc1C(=O)Nc1nc2ccc(-c3c(C)cnn3C)nc2s1 [Example 80] | 9.12 | 30.3 | < 50 | < 100 |  |  | 
COc1cnc(Cl)cc1-c1cc(C)ncc1C(=O)Nc1nc2ncc(N(C)CCC(C)O)cc2s1 (stereo not drawn) [Example 117] | 7.28 | 799 |  |  |  |  | 
[2H]C1(O)CC=C(c2cc3sc(NC(=O)c4cnc(C)cc4-c4cc(Cl)ncc4OC)nc3cn2)CC1 (stereo not drawn) [Example 111, 2'-chloro-N-(6-(4-hydroxycyclohex-1-en-1-yl-4-d)thiazolo[4,5-c]pyridin-2-yl)-5'-methox y-6-methyl-[4,4'-bipyridine]-3-carboxamide] | 3.78 | 13.1 | < 50 | < 100 |  |  | 
CCP(=O)(CC)c1ccc(-c2ccc3nc(NC(=O)c4cnc(C)cc4-c4cc(Cl)ncc4OC)sc3c2)cc1 [Example 187] |  |  |  |  | 8.75 | 271 | 
COc1cnc(Cl)cc1-c1cc(C)ncc1C(=O)Nc1nc2ncc(N3CCC4(CC(O)C4)C3)cc2s1 (stereo not drawn) [Example 99] | 14.3 | 138 | < 50 | 100 to 500 |  |  | 
COc1cnc(Cl)cc1-c1cc2cncn2cc1C(=O)Nc1nc2cnc(N3CCC(O)CC3)cc2s1 [Example 121] | 51.9 | 2510 |  |  |  |  | 
COc1cnc(Cl)c(F)c1-c1cc(C)ncc1C(=O)Nc1nc2ccc(N3CCC(CO)CC3)nc2s1 [Example 129] | 8.06 | 9.68 |  |  |  |  | 
[2H]C([2H])([2H])c1cc(-c2cc(Cl)ncc2OC)c(C(=O)Nc2nc3cnc(C4=CCC(O)CC4)cc3s2)cn1 (stereo not drawn) [Example 110, 2'-chloro-N-(6-(4-hydroxycyclohex-1-en-1-yl)thiazolo[4,5-c]pyridin-2-yl)-5'-methoxy-6-(methyl-d3)-[4,4'-bipyridine]-3-carboxamide] | 2.61 | 2.41 | < 50 | < 100 |  |  | 
COc1cnc(Cl)cc1-c1cc(C)ncc1C(=O)Nc1nc2ncc(C3=CCOCC3)cc2s1 [Example 14] | 2.74 | 31.6 | < 50 | < 100 |  |  | 
COc1cnc(Cl)cc1-c1cc(C)ncc1C(=O)Nc1nc2cnc(-c3c(C)nn(C)c3C)cc2s1 [Example 163] | 2.51 | 3.41 |  |  |  |  | 
COc1cnc(Cl)cc1-c1cc(C)ncc1C(=O)Nc1nc2ccc(-c3c(C)nnn3C)cc2s1 [Example 222, 2'-chloro-N-(6-(1,4-dimethyl-1H-1,2,3-triazol-5-yl)benzo[d]lthiazol-2-yl)-5'-methoxy-6-methyl-[4.4'-bipyridine]-3-carboxamide] |  |  |  |  | 4.36 | 9.62 | 

Compound | IC50 [1, 2] [nM] | IC50 (cells; [3]) [nM] | IC50 [1, 4] [nM] | IC50 (cells; [5]) [nM] | IC50 ([1]; Biochemical assay IC50 (nM)) [nM] | IC50 (cells; [6]) [nM] | IC50 ([1]; read-out: Biochemical assay IC50) [nM]
COc1cnc(Cl)cc1-c1cc(C)ncc1C(=O)Nc1nc2cnc(-c3c(C)cnn3CCN(C)C)cc2s1 [Example 219, 2'-chloro-N-(6-(1-(2-(dimethylamino)ethyl)-4-methyl-1H-parazol-5-yl)thiazolo[4,5-c]pyridin-2-yl)-5'-methoxy-6-methyl-[4.4'-bipyridine]-3-carboxamide trifluoroacetate] |  |  |  |  | 3.31 | 63.1 | 
COc1cnc(Cl)cc1-c1cc(C)ncc1C(=O)Nc1nc2ncc(N3CCC(C(C)(C)O)CC3)nc2s1 [Example 134] | 4.11 | 5.41 |  |  |  |  | 
COc1cnc(Cl)cc1-c1cc(C)ncc1C(=O)Nc1nc2cc(F)c(N3CCC(O)CC3)cc2s1 [Example 119] | 5.46 | 10.7 |  |  |  |  | 
COc1cnc(Cl)cc1-c1cc(C)ncc1C(=O)Nc1nc2cc(F)c(-c3ccc(P4(=O)CCCC4)cc3)cc2s1 [Example 190] | 5.08 | 3.28 |  |  |  |  | 
CNC1CCN(c2cnc3nc(NC(=O)c4cnc(C)cc4-c4cc(Cl)ncc4OC)sc3c2)CC1 [Example 73] | 1.67 | 209 | < 50 | 100 to 500 |  |  | 
COc1cnc(Cl)cc1-c1cc(C)ncc1C(=O)Nc1nc2cnc(-c3c(C)nnn3C3CC3)cc2s1 [Example 214] |  |  |  |  |  | 27 | 6.71
COc1cnc(Cl)cc1-c1cc(C)ncc1C(=O)Nc1nc2cnc(-c3c(C)nn4ccccc34)cc2s1 [Example 158] | 6.31 | 4.64 |  |  |  |  | 
COc1cnc(Cl)cc1-c1cncnc1C(=O)Nc1nc2ccc(C3=CCC(O)CC3)nc2s1 (stereo not drawn) [Example 6] | 193 | 794 | 50 to 200 | 500 to 1000 |  |  | 
COc1cnc(Cl)cc1-c1cc(C)ncc1C(=O)Nc1nc2c(C#N)cc(-c3c(C)cnn3C)cc2s1 [Example 166] | 25.1 | 68.1 |  |  |  |  | 
COc1cc(P(C)(C)=O)ccc1-c1cc(C)ncc1C(=O)Nc1nc2cnc(-c3c(C)cnn3C)cc2s1 [Example 153] | 24.4 | 545 |  |  |  |  | 
COc1cnc(Cl)cc1-c1cc(C)ncc1C(=O)Nc1nc2ncc(N3CCC(CO)C3)cc2s1 (stereo not drawn) [Example 60] | 9.89 | 501 | < 50 | 100 to 500 |  |  | 
COc1cnc(Cl)cc1-c1cc(C)ncc1C(=O)Nc1nc2cc(F)c(-c3c(C)nnn3C)nc2s1 [Example 227, 2'-chloro-N-(5-(1,4-dimethyl-1H-1,2,3-triazol-5-yl)-6-fluorothiazolo[5,4-b]pyridin-2-yl) -5'-methoxy-6-methyl-[4,4'-bipyridine]-3-carboxamide] | 20.7 | 112 |  |  |  |  | 
COc1cnc(Cl)cc1-c1cc(C)ncc1C(=O)Nc1nc2ncc(N3CCC(N(C)C)CC3)cc2s1 [Example 72] | 3.15 | 190 | < 50 | 100 to 500 |  |  | 
COc1cnc(Cl)cc1-c1cc(C)ncc1C(=O)Nc1nc2[nH]c(=O)c(-c3c(C)cnn3C)cc2s1 [Example 178, 2'-chloro-N-(6-(1,4-dimethyl-1H-parazol-5-yl)-5-oxo-4,5-dihydrothiazolo[4,5-b]pyridin-2-yl)-5'-methoxvy-6-methyl-[4,4'-bipyridine]-3-carboxamide] |  |  |  |  | 1.63 | 35.5 | 
COc1cnc(Cl)cc1-c1cc(C)ncc1C(=O)Nc1nc2c(F)cc(N3CCC(O)CC3)cc2s1 [Example 103] | 2.67 | 22.4 | < 50 | < 100 |  |  | 
COc1cnc(Cl)cc1-c1cc(C)ncc1C(=O)Nc1nc2ccc(N3CCc4ccccc43)nc2s1 [Example 131] | 149 | 736 |  |  |  |  | 
COc1cnc(Cl)cc1-c1cc(C)ncc1C(=O)Nc1nc2ncc(-c3cnc4[nH]ccc4c3)cc2s1 [Example 19] | 72.1 | 261 | 50 to 200 | 100 to 500 |  |  | 
COc1cnc(Cl)cc1-c1cc(C)ncc1C(=O)Nc1nc2cc(F)c(-c3ccc(P(C)(C)=O)cc3)cc2s1 [Example 85] | 1.81 | 44.7 | < 50 | < 100 |  |  | 
COc1cnc(Cl)cc1-c1cc(C)ncc1C(=O)Nc1nc2ncc(C3=COCCO3)cc2s1 [Example 86] | 2.67 | 23.3 | < 50 | < 100 |  |  | 
COc1cnc(Cl)cc1-c1cc(C)ncc1C(=O)Nc1nc2ncc(N3CCC(N)CC3)cc2s1 [Example 58] | 11 | 3420 | < 50 | > 1000 |  |  | 
[2H]C([2H])([2H])Oc1cnc(Cl)cc1-c1cc(C)ncc1C(=O)Nc1nc2cnc(-c3c(C)cnn3C)cc2s1 [Example 156] | 2.75 | 5.62 |  |  |  |  | 
